# Counter-ions that a name gives are not always drawn. Marks after values point to notes of the source that are not given here.
# System: plasma metabolites
# Conditions: rat, in vivo
compound,measurement,value
O=P1(N(CCCl)CCCl)NCCCO1 (stereo not drawn) [Cyclophosphamide monohydrate],"3-Hydroxybutyrate, plasma, ratio vs control",0.75 *
same,"18-Hydroxy-11-deoxycorticosterone, plasma, ratio vs control",0.16 *
same,"Choline plasmalogen No 02, plasma, ratio vs control",1.13 *
same,"Citrate, plasma, ratio vs control",0.78 *
same,"Isoleucine, plasma, ratio vs control",1.23 *
same,"Ketoleucine, plasma, ratio vs control",0.88 *
same,"Leucine, plasma, ratio vs control",1.33 *
same,"Lignoceric acid (C24:0), plasma, ratio vs control",1.29 *
same,"Taurine, plasma, ratio vs control",1.21 *
same,"Tricosanoic acid (C23:0), plasma, ratio vs control",1.44 *
same,"Valine, plasma, ratio vs control",1.25 *
Nc1ccc(Cl)c([N+](=O)[O-])c1 [4-Chloro-3 nitroaniline],"3-Hydroxyindole, ratio versus control",1.25
same,"3-Indoxylsulfate, ratio versus control",1.34
same,"3-Methoxytyrosine, ratio versus control",1.90
same,"Cytosine, ratio versus control",1.75
same,"Ribal, ratio versus control",1.89
same,"Serotonin (5-HT), ratio versus control",9.50
Nc1ccc(Cl)c([N+](=O)[O-])c1 [4-Chloro-3-nitroaniline],"3,4-Dihydroxyphenylalanine (DOPA), ratio versus control",0.93
same,"3,4-Dihydroxyphenylglycol (DOPEG), ratio versus control",0.53
same,"Ketoleucine, ratio versus control",0.61
same,biomarkers of table 12a and/or 12b (early indicators of blood anemia) altered as early as,7 days
Nc1ccccc1 [Aniline],"3,4-Dihydroxyphenylalanine (DOPA), ratio versus control",0.81
same,"3,4-Dihydroxyphenylglycol (DOPEG), ratio versus control",0.84
same,"3-Hydroxyindole, ratio versus control",1.61
same,"3-Indoxylsulfate, ratio versus control",1.64
same,"3-Methoxytyrosine, ratio versus control",1.35
same,"Cytosine, ratio versus control",1.62
same,"Ketoleucine, ratio versus control",0.94
same,"Ribal, ratio versus control",1.66
same,biomarkers of table 12a and/or 12b (early indicators of blood anemia) altered as early as,7 days
COc1cccc2c1C(=O)c1c(O)c3c(c(O)c1C2=O)C[C@@](O)(C(=O)CO)C[C@@H]3O[C@H]1C[C@H](N)[C@H](O)[C@H](C)O1 [Adriamycin hydrochloride],"3-Hydroxybutyrate, plasma, ratio vs control",0.66 *
same,"18-Hydroxy-11-deoxycorticosterone, plasma, ratio vs control",0.44 *
same,"Choline plasmalogen No 02, plasma, ratio vs control",1.18 *
same,"Citrate, plasma, ratio vs control",0.86
same,"Ketoleucine, plasma, ratio vs control",0.69 *
same,"Lignoceric acid (C24:0), plasma, ratio vs control",2.04 *
same,"Taurine, plasma, ratio vs control",1.39 *
same,"Tricosanoic acid (C23:0), plasma, ratio vs control",2.14 *
C[C@H]1C[C@@H]2[C@H]([C@@H](O)C[C@@]3(C)[C@H]2CC[C@]3(O)C(=O)CO)[C@@]2(C)C=CC(=O)C=C12 [Methylprednisolone],"18-Hydroxy-11-deoxycorticosterone, ratio versus control",0.15 *
same,"Aspartate, ratio versus control",1.37 *
same,"Cholesterolester No 01, ratio versus control",1.08 *
same,"Glutamate, ratio versus control",1.11 *
same,"Glycerol-3-phosphate, polar fraction, ratio versus control",1.4 *
same,"Ketoleucine, ratio versus control",0.75 *
same,"Pyruvate, ratio versus control",0.65 *
N.N.O=C([O-])C1(C(=O)[O-])CCC1.[Pt+2] [Carboplatin],"3-Hydroxybutyrate, plasma, ratio vs control",0.74 *
same,"4-Hydroxyphenylpyruvate, plasma, ratio vs control",0.39 *
same,"14-Methylhexadecanoic acid, plasma, ratio vs control",0.72 *
same,"21-Hydroxyprogesterone (11-Deoxycorticosterone), plasma, ratio vs control",0.09 *
same,"Ascorbic acid, plasma, ratio vs control",0.84 *
same,"Choline plasmalogen (C18, C20:4), plasma, ratio vs control",0.89 *
same,"Corticosterone, plasma, ratio vs control",0.31 *
same,"Fructose-6-phosphate, plasma, ratio vs control",1.74 *
same,"Glucose-6-phosphate, plasma, ratio vs control",2.2 *
same,"Histidine, plasma, ratio vs control",1.17 *
same,"Indole-3-lactic acid, plasma, ratio vs control",1.13 *
same,"Ornithine, plasma, ratio vs control",1.11 *
same,"Phenylalanine, plasma, ratio vs control",1.2 *
same,"Phosphate (inorganic and organic phosphates), plasma, ratio vs control",1.57 *
same,"Phosphatidylcholine (C18:0, C18:2), plasma, ratio vs control",1.22 *
same,"Progesterone, plasma, ratio vs control",0.49*
same,"Taurine, plasma, ratio vs control",1.47 *
same,"Threonic acid, plasma, ratio vs control",1.51 *
same,"Tryptophan, plasma, ratio vs control",1.17 *
Nc1ccccc1Cl [2-Chloroaniline],"3,4-Dihydroxyphenylalanine (DOPA), ratio versus control",0.76
same,"3,4-Dihydroxyphenylglycol (DOPEG), ratio versus control",0.87
same,"3-Hydroxyindole, ratio versus control",1.40
same,"3-Indoxylsulfate, ratio versus control",1.68
same,"3-Methoxytyrosine, ratio versus control",1.48
same,"Cytosine, ratio versus control",1.41
same,"Ketoleucine, ratio versus control",0.60
same,"Ribal, ratio versus control",1.24
same,"Serotonin (5-HT), ratio versus control",2.64
same,biomarkers of table 12a and/or 12b (early indicators of blood anemia) altered as early as,7 days
Lead acetate trihydrate,"Cholesterolester No 01, plasma, ratio vs control",1.28 *
same,"Glucose, plasma, ratio vs control",0.91
same,"Phosphatidylcholine (C16:0, C18:2), plasma, ratio vs control",1.06 *
same,"Sphingomyelin (d18:2, C18:0), plasma, ratio vs control",1.09 *
same,"TAG (C18:1, C18:2), plasma, ratio vs control",1.33 *
same,"TAG (C18:2, C18:2), plasma, ratio vs control",1.48 *
same,"TAG No 01, plasma, ratio vs control",1.5 *
Nc1ccn([C@@H]2O[C@H](CO)[C@@H](O)[C@@H]2O)c(=O)n1 [Cytarabin],"3-Hydroxybutyrate, plasma, ratio vs control",0.53 *
same,"18-Hydroxy-11-deoxycorticosterone, plasma, ratio vs control",0.13 *
same,"Choline plasmalogen No 02, plasma, ratio vs control",1.11 *
same,"Citrate, plasma, ratio vs control",0.81 *
same,"Isoleucine, plasma, ratio vs control",1.1 *
same,"Ketoleucine, plasma, ratio vs control",0.75 *
same,"Leucine, plasma, ratio vs control",1.12 *
same,"Lignoceric acid (C24:0), plasma, ratio vs control",1.31 *
same,"Taurine, plasma, ratio vs control",1.27 *
same,"Tricosanoic acid (C23:0), plasma, ratio vs control",1.3
same,"Valine, plasma, ratio vs control",1.1 *
C=CC[C@@H]1/C=C(\C)C[C@H](C)C[C@H](OC)[C@H]2O[C@@](O)(C(=O)C(=O)N3CCCC[C@H]3C(=O)O[C@H](/C(C)=C/[C@@H]3CC[C@@H](O)[C@H](OC)C3)[C@H](C)[C@@H](O)CC1=O)[C@H](C)C[C@@H]2OC [Tacrolimus],"18-Hydroxy-11-deoxycorticosterone, ratio versus control",0.48 *
same,"Aspartate, ratio versus control",1.42 *
same,"Cholesterolester No 01, ratio versus control",1.05 *
same,"Glutamate, ratio versus control",1.29 *
same,"Glycerol-3-phosphate, polar fraction, ratio versus control",1.54 *
same,"Ketoleucine, ratio versus control",0.85 *
same,"Pyruvate, ratio versus control",0.77 *
